Measured values from paper PMC7118210 (Frontiers in Pharmacology, 2020).
Like-named read-outs stand apart in the source and are kept apart here.

Assay: Single-dose pharmacokinetics in rats (plasma, UHPLC/MS/MS)
Format: in vivo, Sprague Dawley rats
Conditions: for MRT last: read-out: MRT0-t; for MRT inf: read-out: MRT0-∞
Description: Sixty healthy adult Sprague Dawley rats (180-220 g, half male and female) were purchased from the Guangdong Medical Laboratory Animal Center (Guangzhou, Guangdong, China). Thirty Beagle dogs (10-14 kg, half male and female) were purchased from the […] Laboratory Animal Science & Technology Co., Ltd. (Gaoyao, Guangdong, China). All animals were housed under humanized conditions with free access to food and water, and acclimated to the living conditions for at least one week prior to experimentation at the Laboratory Animal Center of the School of Life Sciences, Sun Yat-sen University. Environmental conditions were maintained at 20°C-25°C, 55% ± 15% relative humidity, 12-h light/dark cycles, and 12 air changes per hour. Prior to experimentation, the animals were fasted overnight with water available ad libitum. All animals were healthy based on physical examination and laboratory analyses performed before and after the experiments. At the end of the experiments, the dogs were returned to the Laboratory Animal Center of School of Life Sciences, Sun Yat-sen University. […] All blood samples were transferred into heparin-treated centrifuge tubes and centrifuged for 10 min at 4,000 rpm and 4°C. All human urine samples were mixed and transferred (4 ml) into storage tubes. All biological samples were stored at -80°C. […] The optimal volume and activity in unit volume of enzyme solution [0.2 M acetic acid/water solution: 0.2 M ammonium acetate/water solution, 15:35 (v/v)] were determined through a pretest of the enzyme (rat plasma, 10 μl, 10 U μl^-1; dog plasma, 10 μl, 10 U μl^-1; human plasma, 20 μl, 20 U μl^-1; human urine, 10 μl, 10 U μl^-1). After enzyme incubation, 10 μl of IS solution was added to the plasma and urine samples (2 μg ml^-1 quercetin 3-β-D-glucoside for rat and dog plasma; 583 ng ml^-1 naringin-D4 and 160 ng ml^-1 naringenin-D4 for human plasma; and 9,710 ng ml^-1 naringin-D4 and 6,000 ng ml^-1 naringenin-D4 for human urine). To each fecal sample, 9-fold methanol-normal saline (2:1, v/v) was added, mixed (18,000 rpm, 15 min) by vortexing and centrifuged (10 min, 9,000 rpm, 4°C). Next, 10 μl IS solution (971 ng ml^-1 naringin-D4 and 600 ng ml^-1 naringenin-D4) was added to the supernatants of feces (200 μl) without enzyme incubation. […] The solid material was dissolved with acetonitrile-water (1:1, v/v) and injected into the ultra high-performance liquid chromatography coupled with triple quadrupole mass spectrometry (UHPLC/MS/MS) system as described below. The analysis of nonclinical and clinical samples was performed with a UHPLC/MS/MS system that consisted of a Shimadzu Nexera X2 ultra high-performance liquid chromatography (UHPLC) (Shimadzu Corp., Kyoto, Japan) coupled with an AB Sciex API4000 triple-quadrupole mass spectrometry (MS/MS) system (AB Sciex, Foster City, CA, USA) equipped with an electrospray ionization source and controlled by Analyst (v. 1.6.2) software. […] The injection volume was 10 μl with the flow rate of 0.3 ml min^-1 for plasma, and 0.4 ml min^-1 for urine and feces. The compounds were detected by multiple reaction monitoring in the negative ion electrospray mode. The electrospray source conditions were as follows: ion source gas1 30 psi, ion source gas2 60 psi, curtain gas 20 psi, collisionally activated dissociation (CAD) gas 8 psi, temperature 500°C, and ion spray voltage -4,500 V. Zero air was used for ion source gas1 and ion source gas2 and nitrogen for curtain gas and CAD gas. […] All pharmacokinetic and excretion parameters were expressed as mean ± standard deviation (SD). All mean and SD values were reported to three significant figures. The pharmacokinetic parameters were calculated using the Phoenix WinNonlin software (Version 6.4, Pharsight Corp., Cary, NC, USA) and compared using the Student's t-test (p < 0.05) in SPSS 18.0 (SPSS Inc., Chicago, IL, USA). […]

[1] = both sexes, Sprague Dawley, rat, plasma, iv, 42 mg/kg
[2] = both sexes, Sprague Dawley, rat, plasma, iv, 42 mg/kg, read-out: Cmax
[3] = both sexes, Sprague Dawley, rat, plasma, iv, 42 mg/kg, read-out: Vd
[4] = female, Sprague Dawley, rat, plasma, iv, 42 mg/kg
[5] = female, Sprague Dawley, rat, plasma, iv, 42 mg/kg, read-out: Cmax
[6] = male, Sprague Dawley, rat, plasma, iv, 42 mg/kg
[7] = male, Sprague Dawley, rat, plasma, iv, 42 mg/kg, read-out: Cmax
[8] = naringenin after naringin 168 mg kg^-1 p.o. single dose, rat
[9] = both sexes, Sprague Dawley, rat, plasma, po, 10.5 mg/kg
[10] = both sexes, Sprague Dawley, rat, plasma, po, 21 mg/kg
[11] = both sexes, Sprague Dawley, rat, plasma, po, 42 mg/kg
[12] = both sexes, Sprague Dawley, rat, plasma, po, 168 mg/kg
[13] = female, Sprague Dawley, rat, plasma, po, 10.5 mg/kg
[14] = female, Sprague Dawley, rat, plasma, po, 21 mg/kg
[15] = female, Sprague Dawley, rat, plasma, po, 42 mg/kg
[16] = female, Sprague Dawley, rat, plasma, po, 168 mg/kg
[17] = male, Sprague Dawley, rat, plasma, po, 10.5 mg/kg
[18] = male, Sprague Dawley, rat, plasma, po, 21 mg/kg
[19] = male, Sprague Dawley, rat, plasma, po, 42 mg/kg
[20] = male, Sprague Dawley, rat, plasma, po, 168 mg/kg
[21] = naringin 168 mg kg^-1 p.o. single dose, rat

O=C1C[C@@H](c2ccc(O)cc2)Oc2cc(O)cc(O)c21 [naringenin, Naringenin]
AUC(0-inf) [1]: 2390 ± 1110 ng·h/mL
AUC(0-t) [1]: 2360 ± 1120 ng·h/mL
Tmax [1]: 0.04 ± 0.021 h
clearance [1]: 390 mL/min/kg
half-life [1]: 2.45 ± 1.38 h
Cmax [2]: 3980 ± 2510 ng/mL
MRT last [1]: 3.36 ± 2.11 h
MRT inf [1]: 3.66 ± 2.14 h
Vd [3]: 88.3 ± 113 L/kg
half-life (both sexes, Sprague Dawley, rat, plasma, oral, naringenin in rats, studies overall): 2.31 ± 1.21 h
Tmax [4]: 0.043 ± 0.025 h
half-life [4]: 2.91 ± 1.87 h
Cmax [5]: 2430 ± 1550 ng/mL
AUC(0-inf) [6]: 3010 ± 982 ng·h/mL
AUC(0-t) [6]: 2990 ± 986 ng·h/mL
Cmax [7]: 5540 ± 2400 ng/mL
CL [8]: 327 ± 288 mL/min/kg
Vd [8]: 93.4 ± 121 L/kg
lag-time in plasma (rats, after p.o. naringin): 0.701 ± 0.523 h
time for concentrations to increase to Cmax after the lag-time (rats, after p.o. naringin): 2.93 ± 2.01 h

C[C@@H]1O[C@@H](O[C@H]2[C@H](Oc3cc(O)c4c(c3)O[C@H](c3ccc(O)cc3)CC4=O)O[C@H](CO)[C@@H](O)[C@@H]2O)[C@H](O)[C@H](O)[C@H]1O [naringin, Naringin]
AUC(0-inf) [1]: 18100 ± 7550 ng·h/mL
AUC(0-t) [1]: 18100 ± 7580 ng·h/mL
Tmax [1]: 0.03 h
clearance [1]: 48.3 mL/min/kg
half-life [1]: 1.62 ± 1.18 h
Cmax [2]: 88500 ± 51000 ng/mL
MRT last [1]: 0.496 ± 0.382 h
MRT inf [1]: 0.57 ± 0.476 h
Vd [3]: 8.29 ± 10 L/kg
half-life (both sexes, Sprague Dawley, rat, plasma, po): < 1 h
AUC(0-inf) [9]: 35.7 ± 29.3 ng·h/mL
AUC(0-t) [9]: 32.7 ± 27.7 ng·h/mL
Tmax [9]: 1.5 ± 2.35 h
half-life [9]: 0.328 ± 0.275 h
Cmax (both sexes, Sprague Dawley, rat, plasma, po, 10.5 mg/kg, read-out: Cmax): 31.7 ± 13.2 ng/mL
MRT last [9]: 0.741 ± 0.423 h
MRT inf [9]: 1.22 ± 0.297 h
AUC(0-inf) [10]: 38.4 ± 21.4 ng·h/mL
AUC(0-t) [10]: 34.2 ± 20.3 ng·h/mL
Tmax [10]: 1.53 ± 2.36 h
half-life [10]: 0.5 ± 0.493 h
Cmax (both sexes, Sprague Dawley, rat, plasma, po, 21 mg/kg, read-out: Cmax): 30.5 ± 16.3 ng/mL
MRT last [10]: 1.18 ± 0.399 h
MRT inf [10]: 1.42 ± 0.621 h
AUC(0-inf) [11]: 45.1 ± 55.4 ng·h/mL
AUC(0-t) [11]: 40.7 ± 51.3 ng·h/mL
Tmax [11]: 1.18 ± 1.78 h
half-life [11]: 0.463 ± 0.598 h
Cmax (both sexes, Sprague Dawley, rat, plasma, po, 42 mg/kg, read-out: Cmax): 52.6 ± 78.8 ng/mL
MRT last [11]: 1.1 ± 0.381 h
MRT inf [11]: 1.24 ± 0.292 h
AUC(0-inf) [12]: 145 ± 66.4 ng·h/mL
AUC(0-t) [12]: 140 ± 66.3 ng·h/mL
Tmax [12]: 2.85 ± 4.06 h
half-life [12]: 0.738 ± 0.781 h
MRT last [12]: 2.01 ± 0.451 h
MRT inf [12]: 1.96 ± 1.08 h
Tmax (both sexes, Sprague Dawley, rat, plasma, po, rats, nonclinical p.o. administration studies overall): 1.77 ± 2.64 h
AUC(0-inf) [4]: 14800 ± 7280 ng·h/mL
AUC(0-t) [4]: 14800 ± 7290 ng·h/mL
Tmax [4]: 0.03 h
half-life [4]: 1.6 ± 0.972 h
Cmax [5]: 70200 ± 60000 ng/mL
AUC(0-inf) [13]: 34.6 ± 31.9 ng·h/mL
AUC(0-t) [13]: 31.9 ± 29.9 ng·h/mL
Tmax [13]: 1.05 ± 0.622 h
half-life [13]: 0.465 ± 0.344 h
Cmax (female, Sprague Dawley, rat, plasma, po, 10.5 mg/kg, read-out: Cmax): 27.2 ± 11.2 ng/mL
AUC(0-inf) [14]: 51.9 ± 15.7 ng·h/mL
AUC(0-t) [14]: 47 ± 15.6 ng·h/mL
Tmax [14]: 1.55 ± 2.49 h
half-life [14]: 0.675 ± 0.57 h
Cmax (female, Sprague Dawley, rat, plasma, po, 21 mg/kg, read-out: Cmax): 31.1 ± 16 ng/mL
AUC(0-inf) [15]: 15.3 ± 11.6 ng·h/mL
AUC(0-t) [15]: 13.3 ± 10.3 ng·h/mL
Tmax [15]: 1.7 ± 2.42 h
half-life [15]: 0.55 ± 0.813 h
Cmax (female, Sprague Dawley, rat, plasma, po, 42 mg/kg, read-out: Cmax): 12.6 ± 9.42 ng/mL
AUC(0-inf) [16]: 142 ± 52.4 ng·h/mL
AUC(0-t) [16]: 137 ± 50.7 ng·h/mL
Tmax [16]: 1.95 ± 3.39 h
half-life [16]: 0.85 ± 0.854 h
Cmax (female, Sprague Dawley, rat, plasma, po, 168 mg/kg, read-out: Cmax): 95.8 ± 54.4 ng/mL
AUC(0-inf) [6]: 21400 ± 6930 ng·h/mL
AUC(0-t) [6]: 21300 ± 7030 ng·h/mL
Tmax [6]: 0.03 h
half-life [6]: 1.65 ± 1.48 h
Cmax [7]: 106000 ± 37600 ng/mL
AUC(0-inf) [17]: 36.9 ± 30.2 ng·h/mL
AUC(0-t) [17]: 33.5 ± 28.8 ng·h/mL
Tmax [17]: 1.95 ± 3.4 h
half-life [17]: 0.19 ± 0.063 h
Cmax (male, Sprague Dawley, rat, plasma, po, 10.5 mg/kg, read-out: Cmax): 36.1 ± 14.9 ng/mL
AUC(0-inf) [18]: 24.8 ± 18 ng·h/mL
AUC(0-t) [18]: 21.4 ± 16.5 ng·h/mL
Tmax [18]: 1.5 ± 2.52 h
half-life [18]: 0.325 ± 0.381 h
Cmax (male, Sprague Dawley, rat, plasma, po, 21 mg/kg, read-out: Cmax): 29.9 ± 18.5 ng/mL
AUC(0-inf) [19]: 74.9 ± 67.6 ng·h/mL
AUC(0-t) [19]: 68.1 ± 62.7 ng·h/mL
Tmax [19]: 0.65 ± 0.762 h
half-life [19]: 0.375 ± 0.354 h
Cmax (male, Sprague Dawley, rat, plasma, po, 42 mg/kg, read-out: Cmax): 92.7 ± 99.4 ng/mL
AUC(0-inf) [20]: 149 ± 84.3 ng·h/mL
AUC(0-t) [20]: 144 ± 80.3 ng·h/mL
Tmax [20]: 3.75 ± 4.85 h
half-life [20]: 0.625 ± 0.781 h
Cmax (male, Sprague Dawley, rat, plasma, po, 168 mg/kg, read-out: Cmax): 113 ± 102 ng/mL
Vd (naringin 10.5 mg kg^-1 p.o. single dose, rat): 174 ± 98.3 L/kg
Vd (naringin 21 mg kg^-1 p.o. single dose, rat): 322 ± 239 L/kg
Vd (naringin 42 mg kg^-1 p.o. single dose, rat): 586 ± 394 L/kg
Cmax [21]: 104 ± 77.5 ng/mL
Vd [21]: 639 ± 657 L/kg
